In patent US7732449B2, “Inhibitors of cathepsin S” (IRM LLC, priority 2003, dated 2010):
Read-outs that look alike come from different tables or passages of the source.

Columns and labels:
Format in all cases: biochemical
Cathepsin S = Cathepsin S (Homo sapiens, UniProt P25774); assay: Cathepsin S inhibition, fluorogenic peptide substrate kinetic assay;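 also: cleavage rate of a coumarin-labelled peptide substrate (50 µM) read as fluorescence increase at Ex 380 nm and Em 450 nm, relative to inhibitor-free control reactions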
Cathepsin K = molecular target: T1, Cathepsin K (Homo sapiens, UniProt P43235); assay: Cathepsin K inhibition, fluorogenic peptide substrate kinetic assay (selectivity); conditions: ratio of cathepsin K inhibition constant to cathepsin S inhibition constant
T1 sequence (P43235 115-329): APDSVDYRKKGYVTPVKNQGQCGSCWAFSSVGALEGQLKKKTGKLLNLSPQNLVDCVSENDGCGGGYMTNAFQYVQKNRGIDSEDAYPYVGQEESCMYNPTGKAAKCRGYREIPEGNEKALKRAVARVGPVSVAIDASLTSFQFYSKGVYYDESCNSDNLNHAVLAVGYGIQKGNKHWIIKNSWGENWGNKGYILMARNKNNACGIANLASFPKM

Cathepsin L = Cathepsin L (Homo sapiens, UniProt P07711); assay: Cathepsin L inhibition, fluorogenic peptide substrate kinetic assay (selectivity); conditions: ratio of cathepsin L inhibition constant to cathepsin S inhibition constant
Cathepsin B = Cathepsin B (Homo sapiens, UniProt P07858); assay: Cathepsin B inhibition, fluorogenic peptide substrate kinetic assay (selectivity); conditions: ratio of cathepsin B inhibition constant to cathepsin S inhibition constant;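 also: value is the cathepsin B inhibition constant divided by the cathepsin S one, each from kinetic fluorescence readings (ex 380 nm, em 450 nm) of a 10 µM coumarin peptide substrate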
[1] = Cathepsin S inhibition constant, pH5.5, 20 minutes preincubation at room temperature, read-out: Ki Cat. S

Chain of Cathepsin S (P25774 115-331, species assumed): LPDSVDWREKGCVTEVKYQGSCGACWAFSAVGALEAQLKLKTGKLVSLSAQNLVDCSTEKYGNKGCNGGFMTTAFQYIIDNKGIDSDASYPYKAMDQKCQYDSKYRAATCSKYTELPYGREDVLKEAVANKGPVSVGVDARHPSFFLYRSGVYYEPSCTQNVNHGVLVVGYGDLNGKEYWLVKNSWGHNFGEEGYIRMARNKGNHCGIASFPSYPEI
Chain of Cathepsin L (P07711 114-333, species assumed): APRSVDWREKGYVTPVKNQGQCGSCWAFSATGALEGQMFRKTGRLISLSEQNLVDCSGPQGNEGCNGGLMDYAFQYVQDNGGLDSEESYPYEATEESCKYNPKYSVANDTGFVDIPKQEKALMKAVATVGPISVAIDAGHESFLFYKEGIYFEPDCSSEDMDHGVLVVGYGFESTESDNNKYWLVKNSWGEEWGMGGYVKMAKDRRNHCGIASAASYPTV

| SMILES | Ki (Cathepsin S; [1]) [µM] | Selectivity for Cat. S over Cat. K (Cathepsin K) | Selectivity for Cat. S over Cat. L (Cathepsin L) | Selectivity for Cat. S over Cat. B (Cathepsin B) | Ki (Cathepsin S) [µM] |
| --- | --- | --- | --- | --- | --- |
| CC(=O)N1CCN(C(=O)C[C@@H](CC2CCCCC2)C(=O)N[C@@H](C)CNc2ccc(OC(F)(F)F)cc2)CC1 [Example 52, 4-(4-Acetyl-piperazin-1-yl)-2-(R)-cyclohexylmethyl-N-[1-(S)-methyl-2-(4-trifluoromethoxy-phenylamino)-ethyl]-4-oxo-butyramide] | 0.1 to 1 | + (+, >10) | ++ (++, >100) | ++ (++, >100) |  |
| COc1ccc([C@H](CC(=O)N2CCOCC2)C(=O)N[C@H](CNc2ccc(OC(F)(F)F)cc2)C(C)C)cc1 [Example 53, 2-(S)-(4-Methoxy-phenyl)-N-{2-methyl-1-(S)-[(4-trifluoromethoxy-phenylamino)-methyl]-propyl}-4-morpholin-4-yl-4-oxo-butyramide] |  | ++ (++, >100) | ++ (++, >100) | ++ (++, >100) | 0.1 to 1 |
| C[C@@H](CN1CC(C)(C)c2cc(F)ccc21)NC(=O)[C@@H](CC(=O)N1CCOCC1)CC1CCCCC1 [Example 54, 2-(R)-Cyclohexylmethyl-N-[2-(5-fluoro-3,3-dimethyl-2,3-dihydro-indol-1-yl)-1-(S)-methyl-ethyl]-4-morpholin-4-yl-4-oxo-butyramide] | < 0.1 | +++ (+++, >1000) | ++ (++, >100) | +++ (+++, >1000) |  |
| CC(C)[C@@H](CNc1ccc(OC(F)(F)F)cc1)NC(=O)[C@@H](CC(=O)N1CCOCC1)c1ccc(C(F)(F)F)cc1 [Example 55, N-{2-Methyl-1-(S)-[(4-trifluoromethoxy-phenylamino)-methyl]-propyl}-4-morpholin-4-yl-4-oxo-2-(S)-(4-trifluoromethyl-phenyl)-butyramide] |  | +++ (+++, >1000) | ++ (++, >100) | ++ (++, >100) | 0.1 to 1 |
| Cc1ccc([C@H](CC(=O)N2CCOCC2)C(=O)N[C@H](CNc2ccc(OC(F)(F)F)cc2)C(C)C)cc1 [Example 57, N-{2-Methyl-1-(S)-[(4-trifluoromethoxy-phenylamino)-methyl]-propyl}-4-morpholin-4-yl-4-oxo-2-(S)-p-tolyl-butyramide] |  | ++ (++, >100) | ++ (++, >100) | ++ (++, >100) | 0.1 to 1 |
| C[C@@H](CNc1ccc(OC(F)(F)F)cc1)NC(=O)[C@@H](CC(=O)N1CCS(=O)(=O)CC1)CC1CCCCC1 [Example 58, 2-(R)-Cyclohexylmethyl-4-(1,1-dioxo-thiomorpholin-4-yl)-N-[1-(S)-methyl-2-(4-trifluoromethoxy-phenylamino)-ethyl]-4-oxo-butyramide] | 0.1 to 1 | ++ (++, >100) | + (+, >10) | ++ (++, >100) |  |
| CCC1(O)CCCC(C[C@H](CC(=O)N2CCOCC2)C(=O)N[C@@H](C)CNc2ccc(OC(F)(F)F)cc2)C1 (stereo partly drawn) [Example 59, 2-(R)-(3-Ethyl-3-hydroxy-cyclohexylmethyl)-N-[1-(S)-methyl-2-(4-trifluoromethoxy-phenylamino)-ethyl]-4-morpholin-4-yl-4-oxo-butyramide] | 1 to 10 | + (+, >10) | + (+, >10) | + (+, >10) |  |
| C[C@@H](CNc1ccc(OC(F)(F)F)cc1)NC(=O)[C@@H](CC(=O)N1CCOCC1)c1ccc(C(F)(F)F)cc1 [Example 60, N-[1-(S)-Methyl-2-(4-trifluoromethoxy-phenylamino)-ethyl]-4-morpholin-4-yl-4-oxo-2-(S)-(4-trifluoromethyl-phenyl)-butyramide] |  | + (+, >10) | + (+, >10) | + (+, >10) | 1 to 10 |
| C[C@@H](CNc1ccc(OC(F)(F)F)cc1)NC(=O)[C@@H](CC(=O)N1CCOCC1)c1ccccc1 [Example 61, N-[1-(S)-Methyl-2-(4-trifluoromethoxy-phenylamino)-ethyl]-4-morpholin-4-yl-4-oxo-2-(S)-phenyl-butyramide] | 1 to 10 | + (+, >10) | + (+, >10) | + (+, >10) |  |
| C[C@@H](CNc1ccc(OC(F)(F)F)cc1)NC(=O)[C@@H](CC(=O)N1CCOCC1)c1ccc(F)cc1 [Example 62, 2-(S)-(4-Fluoro-phenyl)-N-[1-(S)-methyl-2-(4-trifluoromethoxy-phenylamino)-ethyl]-4-morpholin-4-yl-4-oxo-butyramide] | 0.1 to 1 | ++ (++, >100) | ++ (++, >100) | ++ (++, >100) |  |
| COc1ccc([C@H](CC(=O)N2CCOCC2)C(=O)N[C@@H](C)CNc2ccc(OC(F)(F)F)cc2)cc1 [Example 63, 2-(S)-(4-Methoxy-phenyl)-N-[1-(S)-methyl-2-(4-trifluoromethoxy-phenylamino)-ethyl]-4-morpholin-4-yl-4-oxo-butyramide] | 0.1 to 1 | ++ (++, >100) | ++ (++, >100) | ++ (++, >100) |  |
| COc1ccc(NC[C@@H](NC(=O)[C@@H](CC(=O)N2CCOCC2)c2ccc(F)cc2)C(C)C)cn1 [Example 64, 2-(S)-(4-Fluoro-phenyl)-N-{1-(S)-[(6-methoxy-pyridin-3-ylamino)-methyl]-2-methyl-propyl}-4-morpholin-4-yl-4-oxo-butyramide] | 0.1 to 1 | + (+, >10) | + (+, >10) | ++ (++, >100) |  |
| C[C@@H](CNc1ccc(OC(F)(F)F)cc1)NC(=O)[C@@H](CC(=O)N1CCOCC1)CC1CCC2(CC1)CC2 [Example 65, N-[1-(S)-Methyl-2-(4-trifluoromethoxy-phenylamino)-ethyl]-4-morpholin-4-yl-4-oxo-2-(R)-spiro[2.5]oct-6-ylmethyl-butyramide] | 0.1 to 1 | ++ (++, >100) | ++ (++, >100) | ++ (++, >100) |  |
| CC(C)[C@@H](CNc1cccc(S(C)(=O)=O)c1)NC(=O)[C@@H](CC(=O)N1CCOCC1)c1ccc(F)cc1 [Example 67, 2-(S)-(4-Fluoro-phenyl)-N-{1-(S)-[(3-methanesulfonyl-phenylamino)-methyl]-2-methyl-propyl}-4-morpholin-4-yl-4-oxo-butyramide] | 1 to 10 | + (+, >10) | + (+, >10) | + (+, >10) |  |
| CC(C)[C@@H](CN1CC(C)(C)c2cc(F)ccc21)NC(=O)[C@@H](CC(=O)N1CCOCC1)c1ccc(C(F)(F)F)cc1 [Example 68, N-[1-(S)-(5-Fluoro-3,3-dimethyl-2,3-dihydro-indol-1-ylmethyl)-2-methyl-propyl]-4-morpholin-4-yl-4-oxo-2-(S)-(4-trifluoromethyl-phenyl)-butyramide] | < 0.1 | ++ (++, >100) | +++ (+++, >1000) | +++ (+++, >1000) |  |
